Assay results taken from patent US10842807B2, “Methods of treating neurodegenerative disorders comprising DNA methyltransferase inhibitors” (Washington University, priority 2016, dated 2020).

How the values were obtained:
Assay type in all cases: cell-based, mouse
[1] = system: Htt-72Q-expressing primary cortical neurons; test: Epigenetic drug library screen, resazurin (Alamar Blue) assay; conditions: 0.02, 0.2, 2 μM added at DIV 6, resazurin at DIV 14; hits validated by MTS
Experimental: As epigenetic gene regulation is a cell-type specific mechanism, we used a physiologically relevant, post-mitotic cortical neuron culture system for this screen. In this system, lentivirus-mediated expression of the exon 1-encoded N-terminal fragment of mutant Htt (Htt-72Q with a 72 glutamine repeat), but not wild-type (WT) Htt (Htt-25Q), induces neurotoxicity^38. […] In the drug screen, the viability of Htt-expressing cortical neurons was determined by the resazurin (Alamar Blue) assay, a quantitative measurement of mitochondrial metabolic activity, which correlates with cell viability.
Epigenetic drug screen was performed using a primary cortical neuron model of HD with a drug library composed of 84 compounds (Table 1), among which 80 drugs are purchased from Cayman Chemical (Epigenetic Screening Library Item No 11076) and four drugs, SGC0946, EPZ5676, EPZ6438, and GSK126, were obtained from Xcessbio Biosciences Inc. Mouse primary cortical neurons were plated on 96-well flat clear bottom black plates (Corning #3904). WT or mutant Htt exon1 fragment (Htt-25Q or Htt-72Q)-expressing lentiviruses are infected at DIV 5 as described above. The 84 compounds were added to the media at DIV 6 one day after Htt lentiviral infection with three different doses (0.02, 0.2, 2 μM) for each compound at triplicates. DMSO was used as control. Media containing compounds or DMSO were changed every three days to maintain the compounds' activity. At DIV 14, the viability of neurons was determined by resazurin (Alamar blue) assay, a quantitative measurement of mitochondrial metabolic activity. The screen was fully automated and performed in the High-Throughput Screening Center in Washington University School of Medicine. Any possible plate effects were determined using control plates treated with DMSO and used for normalization. Screen hits were validated by MTS assay.

[2] = system: Htt-72Q-expressing primary cortical neurons; test: MTS cell viability assay in Htt-expressing primary cortical neurons; conditions: for viability of mutant Htt-expressing neurons (MTS assay), validation of screen hits: 0.02, 0.2, 2 μM vs Htt-72Q (0 μM); for viability of Htt-72Q-expressing neurons (MTS assay): MTS at DIV 14
Experimental: Mouse primary cortical and striatal neurons from embryonic day (E) 15.5 Swiss Webster mouse fetuses (Taconic) were first plated in the minimal essential medium (MEM) containing 10% FBS, 0.45% glucose, 1 mM sodium pyruvate, 2 mM glutamine, 20 U/ml penicillin and 20 μg/ml streptomycin, for 3 h and then maintained in serum-free Neurobasal medium (Life Technologies) containing NeuroCult™ SM1 neuronal supplement ([…] Technologies), 0.5 mM glutamine and 25 μM glutamate for the first 3 d in a humidified incubator (37° C. in 5% CO2). Half of the medium was replaced with Neurobasal medium with SM1 and 0.5 mM glutamine every 3 days. Primary cortical neurons plated on 96-well flat clear bottom black plates (Corning #3904) at 4×10^4 cells/well were infected with Htt exon1 expression lentivirus (Htt-25Q or Htt-72Q) or control empty vector lentivirus at 5 days in vitro (DIV 5). Primary striatal neurons plated on 96-well plates at 1×10^5 cells/well were infected with Htt exon1 expression lentivirus at DIV 4. Viral copy number was adjusted for transduction of neurons on the basis of titer measured using the Lenti-X qRT-PCR titration kit (Clontech), and equal numbers of viral particles of Htt-25Q and Htt-72Q expressing lentiviruses were used for transduction. For the experiments to test effects of DNMT inhibitors, neurons were treated with inhibitors six hours after Htt lentiviral infection. One half of the media was changed every 3 days with media containing new drug. In knockdown experiments in Htt-expressing neurons, primary cortical neurons were cotransduced with Htt-expressing lentivirus and Dnmt shRNA or control shRNA lentivirus at DIV 5. pLKO.1-TRC1-luciferase (Luci) and pLKO.1-TRC2-LacZ were used as control for RNAi with pLKO.1-TRC1-Dnmt3a and pLKO.1-TRC2-Dnmt1, respectively. Lentiviral particles were prepared by transfecting 293LE cells with the lentiviral plasmid of interest along with packaging plasmid psPAX2 and envelope plasmid pCMV-SVG as described previously^86. Four days after transfection, viruses in the conditioned media were collected and purified using Lenti-X Concentrator (Clontech). Primary cortical neurons from BACHD mouse embryos (E15.5) were individually plated into separate wells and treated at DIV 4 with decitabine or vehicle for 3.5 days.

[3] = system: Htt-72Q-expressing primary cortical neurons; test: Neurofilament (NF) immunofluorescence, neurite degeneration in cortical neurons; conditions: fixed at DIV 14; vs. Htt-72Q (0 μM)
Experimental: (§1) Mouse primary cortical and striatal neurons from embryonic day (E) 15.5 Swiss Webster mouse fetuses (Taconic) were first plated in the minimal essential medium (MEM) containing 10% FBS, 0.45% glucose, 1 mM sodium pyruvate, 2 mM glutamine, 20 U/ml penicillin and 20 μg/ml streptomycin, for 3 h and then maintained in serum-free Neurobasal medium (Life Technologies) containing NeuroCult™ SM1 neuronal supplement ([…] Technologies), 0.5 mM glutamine and 25 μM glutamate for the first 3 d in a humidified incubator (37° C. in 5% CO2). Half of the medium was replaced with Neurobasal medium with SM1 and 0.5 mM glutamine every 3 days. Primary cortical neurons plated on 96-well flat clear bottom black plates (Corning #3904) at 4×10^4 cells/well were infected with Htt exon1 expression lentivirus (Htt-25Q or Htt-72Q) or control empty vector lentivirus at 5 days in vitro (DIV 5). Primary striatal neurons plated on 96-well plates at 1×10^5 cells/well were infected with Htt exon1 expression lentivirus at DIV 4. Viral copy number was adjusted for transduction of neurons on the basis of titer measured using the Lenti-X qRT-PCR titration kit (Clontech), and equal numbers of viral particles of Htt-25Q and Htt-72Q expressing lentiviruses were used for transduction. […]
(§2) For the measurement of neurofilament (NF) immunofluorescence intensity, cortical and striatal neurons cultured in a 96-well plate were fixed in 4% paraformaldehyde (PFA) in PBS for 20 min nine and seven days after Htt lentiviral infection, respectively, permeabilized with 0.1% Triton X-100 in PBS for 15 min at room temperature, and subjected to indirect immunofluorescence with anti-NF (2H3) primary antibody and Alexa Fluor 568-conjugated goat anti-mouse IgG secondary antibody (Life Technologies). […] Following image background subtraction, the NF immunofluorescence intensity was quantified using an ImageJ-based macro. Image capture and quantification of Htt (EM48) immunofluorescence intensity were performed as described for those of NF. […] About 300 nuclei from three random fields in a well were counted. […]

[4] = system: Htt-72Q-expressing primary striatal neurons; test: Neurofilament (NF) immunofluorescence, neurite degeneration in striatal neurons; conditions: DIV 4 striatal neurons transduced, fixed seven days later; vs. Htt-72Q (0 μM)
Experimental: as §1, §2

For `CC(=O)Nc1ccc(NC(=S)NC(=O)c2ccc(C(C)(C)C)cc2)cc1` [Tenovin-1], the “outcome in epigenetic drug screen (84 compounds)” value [1] was “one of the top three positive compounds” and the “viability of mutant Htt-expressing neurons (MTS assay), validation of screen hits” value [2] was “did not significantly increase the viability of mutant Htt-expressing neurons”.

`CNCc1ccc(-c2[nH]c3cc(F)cc4c3c2CCNC4=O)cc1` [AG-014699] was tested, and the “outcome in epigenetic drug screen (84 compounds)” value [1] was “another screen hit” and the “viability of mutant Htt-expressing neurons (MTS assay), validation of screen hits” value [2] was “no significant difference in survival”.

`Nc1ncn([C@@H]2O[C@H](CO)[C@@H](O)[C@H]2O)c(=O)n1` [5-azacytidine] was tested, and the “Htt-72Q-induced neurite degeneration (NF immunofluorescence intensity), cortical neurons” value [3] was “no significant difference in NF immunofluorescence intensity”, the “mutant Htt-induced neurite degeneration (NF immunofluorescence intensity), striatal neurons” value [4] was “no significant difference in NF immunofluorescence intensity” and the “viability of Htt-72Q-expressing neurons (MTS assay)” value ([2]; DIV 5 cortical neurons transduced with Htt lentivirus, treated with drug or DMSO (=0 μM), vs. Htt-72Q (0 μM)) was “no significant difference in survival”.

B1: BDNF: recombinant BDNF protein added in the culture medium (protein, UniProt P23560 19-247, looked up)
Neurotrophic factor BDNF …: APMKEANIRGQGGLAYPGVRTHGTLESVNGPKAGSRGLTSLADTFEHVIEELLDEDQKVRPNEENNKDADLYTSRVMLSSQVPLEPPLLFLLEEYKNYLDAANMSMRVRRHSDPARRGELSVCDSISEWVTAADKKTAVDMSGGTVTVLEKVPVSKGQLKQYFYETKCNPMGYTKEGCRGIDKRHWNSQCRTTQSYVRALTMDSKKRIGWRFIRIDTSCVCTLTIKRGR
B1 was tested, and the “viability of Htt-72Q-expressing neurons (MTS assay)” value ([2]; cultured with recombinant BDNF 50 ng/ml, vs. Htt-72Q with vehicle) was “increased the viability of Htt-72Q-expressing neurons”.
